This is an account of results in US12084420B2, “Indoline compounds for inhibiting KIF18A” (Volastra Therapeutics, Inc., priority 2021, dated 2024).

Experiment [1] deals with HCC15 cells. Nature of the experiment: Cell viability of KIF18a-sensitive cell lines, HCC15 (Cell Titre-Glo, 7 days). Conditions: read-out: HCC-15 IC50. Format: cell-based. As for the experimental part: (§1) Cell Viability of KIF18a-Sensitive Cell Lines
(§2) Cell lines were seeded as follows 24 hours before compound treatment: HCC15 (Korean Cell Line Bank) 600 cell/well, 95 μL of RPMI-1640 media supplemented with 100 units/mL penicillin, 100 units/mL streptomycin and 10% FBS; NIH:OVCAR-3 (ATCC), 1000 cell/well, 95 μL of RPMI-1640 media supplemented with 100 units/mL penicillin, 100 units/mL streptomycin, 0.01 mg/mL bovine insulin, and 20% FBS; JIMT-1 (Addexbio) 1000 cell/well, 95 μL of DMEM media supplemented with 100 units/mL penicillin, 100 units/mL streptomycin, and 10% FBS.
(§3) Test compounds were added to cells in a 20× dilution scheme by adding 5 μL of serially diluted compound to the plate, and the treated cells were incubated for an additional 7 days in a 37° C., 5% CO2 incubator. DMSO was used as the negative control (0% effect), and wells omitting cells were used as the positive control (100% effect). The cells were incubated for seven days, and cell viability determined via the Promega Cell Titre-Glo® Assay kit. Luminescence units were converted to ATP concentrations via an ATP standard curve (10 point, 2-fold dilution from 5 uM). % Inhibition was calculated for each well as: ([max−min]−[test−min])/[max−min]. IC50 values were calculated from concentration vs. % Inhibition data via a four-parameter variable slope model.

Experiment [2] addresses KIF18a-Microtubule Complex (Homo sapiens (Human), UniProt Q8NI77). As to the kind of experiment: Binding kinetics to KIF18a-microtubule complex (global progress curve analysis). Conditions: for koff (off-rate from binding kinetics assay) / kon (on-rate from binding kinetics assay): global progress curve analysis; for Ki: read-out: KI (determined from binding kinetic assay koff/kon), koff/kon; for koff: read-out: koff (off-rate from binding kinetics assay). As for the experimental part:
Binding Kinetics to KIF18a-Microtubule Complex
Compound binding kinetics parameters (kon and koff) were determined by the method of global progress curve analysis (GPCA). […] ADP product levels were determined by the Promega® ADP-Glo assay. The time/dose-dependent progress curves were then globally fit to a Michaelis-Menten kinetics model with 1-step slow binding inhibition to derive both on-rate kon and off-rate koff values (Zhang, R., Wong, K. (2017): “High performance enzyme kinetics of turnover, activation and inhibition for translational drug discovery”, Expert Opinion on Drug Discovery, 2017 January; 12(1):17-37. doi: 10.1080/17460441.2017.1245721).

The subject of experiment [3] is JIMT-1 cells. Nature of the experiment: Cell viability of KIF18a-sensitive cell lines, JIMT-1 (Cell Titre-Glo, 7 days). It counts as cell-based. The note with it: JIMT-1 cells, 7 days, Cell Titre-Glo; read-out: JIMT-1 IC50. As for the experimental part:
as §1, §2, §3

Experiment [4] deals with NIH:OVCAR-3 cells. Nature of the experiment: Cell viability of KIF18a-sensitive cell lines, NIH:OVCAR-3 (Cell Titre-Glo, 7 days). Format: cell-based. Conditions: NIH-OVCAR3 cells, 7 days, Cell Titre-Glo; read-out: NIH-OVCAR3 IC50. As for the experimental part:
as §1, §2, §3

The target of experiment [5] is hKIF18A (1-374) (Homo sapiens (Human), UniProt Q8NI77). Nature of the experiment: Inhibition of KIF18A microtubule-dependent ATPase activity (ADP-Glo). Conditions: KIF18A microtubule-dependent ATPase activity, biochemical assay.
Sequence of hKIF18A (1-374) (Q8NI77 whole entry, looked up): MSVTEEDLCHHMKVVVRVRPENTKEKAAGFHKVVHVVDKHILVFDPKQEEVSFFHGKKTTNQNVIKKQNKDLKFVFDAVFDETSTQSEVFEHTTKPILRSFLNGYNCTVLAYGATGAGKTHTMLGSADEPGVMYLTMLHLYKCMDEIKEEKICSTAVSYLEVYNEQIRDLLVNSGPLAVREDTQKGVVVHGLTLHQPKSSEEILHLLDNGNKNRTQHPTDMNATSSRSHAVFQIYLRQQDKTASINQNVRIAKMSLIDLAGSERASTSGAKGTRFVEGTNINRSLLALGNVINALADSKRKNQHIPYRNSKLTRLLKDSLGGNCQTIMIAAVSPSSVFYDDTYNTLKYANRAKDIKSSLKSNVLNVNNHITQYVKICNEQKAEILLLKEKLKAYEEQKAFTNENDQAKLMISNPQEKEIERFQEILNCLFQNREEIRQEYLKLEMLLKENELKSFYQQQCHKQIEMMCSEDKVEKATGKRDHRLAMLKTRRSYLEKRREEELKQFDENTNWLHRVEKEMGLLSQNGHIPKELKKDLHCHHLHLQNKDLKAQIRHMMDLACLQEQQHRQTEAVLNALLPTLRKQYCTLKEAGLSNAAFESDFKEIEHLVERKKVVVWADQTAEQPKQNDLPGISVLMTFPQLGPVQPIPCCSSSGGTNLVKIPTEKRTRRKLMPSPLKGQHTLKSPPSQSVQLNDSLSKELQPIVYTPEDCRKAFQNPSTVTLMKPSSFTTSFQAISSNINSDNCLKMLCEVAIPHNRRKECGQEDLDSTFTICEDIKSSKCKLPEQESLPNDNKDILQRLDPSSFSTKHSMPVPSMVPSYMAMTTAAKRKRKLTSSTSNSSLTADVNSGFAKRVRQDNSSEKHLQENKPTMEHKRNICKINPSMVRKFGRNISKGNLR
Sequence of hKIF18A (1-374) (Q2XVP4 whole entry partner, looked up): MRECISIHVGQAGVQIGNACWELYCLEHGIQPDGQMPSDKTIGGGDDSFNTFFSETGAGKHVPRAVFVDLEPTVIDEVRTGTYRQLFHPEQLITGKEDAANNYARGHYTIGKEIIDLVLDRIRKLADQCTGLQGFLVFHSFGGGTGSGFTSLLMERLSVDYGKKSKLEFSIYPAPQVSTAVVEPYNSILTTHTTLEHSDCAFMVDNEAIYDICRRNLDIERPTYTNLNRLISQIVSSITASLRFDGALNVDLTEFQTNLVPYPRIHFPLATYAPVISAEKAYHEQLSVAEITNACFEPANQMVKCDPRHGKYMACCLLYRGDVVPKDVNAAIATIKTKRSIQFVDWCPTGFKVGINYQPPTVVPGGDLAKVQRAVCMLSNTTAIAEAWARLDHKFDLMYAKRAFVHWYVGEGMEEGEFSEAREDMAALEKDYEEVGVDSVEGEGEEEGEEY
Sequence of hKIF18A (1-374) (P02554 whole entry partner, looked up): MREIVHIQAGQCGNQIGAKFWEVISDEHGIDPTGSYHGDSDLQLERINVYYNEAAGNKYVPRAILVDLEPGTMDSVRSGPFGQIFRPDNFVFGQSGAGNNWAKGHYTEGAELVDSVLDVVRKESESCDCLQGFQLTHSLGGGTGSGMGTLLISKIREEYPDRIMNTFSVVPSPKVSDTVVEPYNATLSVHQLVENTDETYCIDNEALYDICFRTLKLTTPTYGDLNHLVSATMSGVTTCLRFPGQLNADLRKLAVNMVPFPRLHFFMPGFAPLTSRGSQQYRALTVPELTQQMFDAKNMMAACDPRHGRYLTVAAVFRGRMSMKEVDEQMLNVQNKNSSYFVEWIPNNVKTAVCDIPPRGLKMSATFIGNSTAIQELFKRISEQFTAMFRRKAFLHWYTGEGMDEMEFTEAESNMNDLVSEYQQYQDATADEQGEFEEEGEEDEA
The mark [6] stands for this setting: HCC-15 cells, 7 days, Cell Titre-Glo.
Where [7] appears, read: HCC15, 168 h, HCC-15 cells, 7 days, Cell Titre-Glo.

Like-named read-outs stand apart in the source and are kept apart here.

Sequence of KIF18a-Microtubule Complex (Q8NI77 whole entry, looked up): as the sequence (Q8NI77 whole entry, looked up) above
Sequence of KIF18a-Microtubule Complex (Q2XVP4 whole entry partner, looked up): as the sequence (Q2XVP4 whole entry partner, looked up) above
Sequence of KIF18a-Microtubule Complex (P02554 whole entry partner, looked up): as the sequence (P02554 whole entry partner, looked up) above

What is called IC50 is the concentration that gives 50% inhibition. For `CC(C)(C)NS(=O)(=O)c1cccc(C(=O)N2C[C@]3(CC[C@@H](C)CC3)c3cc(NS(C)(=O)=O)ccc32)c1` [Compound 140b], the IC50 in experiment [1] (setting [6]) was 45 nM. In addition, in experiment [2], the “koff (off-rate from binding kinetics assay)” value worked out at 0.080 h⁻¹, the “kon (on-rate from binding kinetics assay)” value (“kon” for short) is 0.058 nM⁻¹ h⁻¹, the “disc. t1/2 (dissociation half-life ln(2)/koff)” value worked out at 8.7 h and the Ki is 1.4 nM.
For `CS(=O)(=O)Nc1ccc2c(c1)C1(CCC3(CC3)CC1)CN2C(=O)c1ccc([C@H](O)C2CCCC2)o1` (single isomer, unassigned) [Compound 352a], the IC50 was 40 nM in experiment [3], 34 nM in experiment [1] (setting [6]) and 45 nM in experiment [4].
For orientation: koff means a measure of how fast the partners let go of each other. Turning to `CS(=O)(=O)Nc1ccc2c(c1)C1(CCCCC1)CN2C(=O)c1cccc(S(=O)(=O)C2CCCCC2)c1` [Compound 70, N-(1′-(3-(cyclohexylsulfonyl)benzoyl)spiro[cyclohexane-1,3′-indolin]-5′-yl)methanesulfonamide], the half-inhibitory concentration (IC50) in experiment [1] (setting [7]) was found to be 590 nM. The compound also yielded an IC50 in experiment [5] of 30 nM. In experiment [2], the “kon” value is 0.036 nM⁻¹ h⁻¹, the “disc. t1/2 (dissociation half-life ln(2)/koff)” value stood at 3.0 h, the Ki is 6.5 nM and the koff was 6.39e-05 s⁻¹.
For `CC(C)(C)NS(=O)(=O)c1cccc(C(=O)N2C[C@]3(CC[C@H](C)CC3)c3cc(NS(C)(=O)=O)ccc32)c1` [Compound 140a], the 50% inhibitory concentration (IC50) in experiment [1] (setting [6]) is 10 nM. In experiment [2], the “koff (off-rate from binding kinetics assay)” value is 0.024 h⁻¹, the “kon” value worked out at 0.047 nM⁻¹ h⁻¹, the “disc. t1/2 (dissociation half-life ln(2)/koff)” value worked out at 29 h and the Ki stood at 0.5 nM.
Regarding `CC(C)(C)NS(=O)(=O)c1cccc(C(=O)N2CC3(CCC4(CC4)CC3)c3ccccc32)c1` [Compound 10, N-(tert-butyl)-3-(dispiro[cyclopropane-1,1′-cyclohexane-4′,3″-indoline]-1″- carbonyl)benzenesulfonamide], the half-inhibitory concentration (IC50) in experiment [1] (setting [7]) was 2200 nM; in experiment [5], 270 nM.
In the case of `CS(=O)(=O)Nc1ccc2c(c1)C1(CCCCC1)CN2C(=O)c1cccc(S(=O)(=O)N2CCC(F)(F)CC2)c1` [Compound 19, N-(1′-(3-((4,4-difluoropiperidin-1-yl)sulfonyl)benzoyl)spiro[cyclohexane-1,3′-indolin]-5′-yl)methanesulfonamide], the IC50 in experiment [1] (setting [7]) amounted to 92 nM. In experiment [5], this compound gave an IC50 of 32 nM. In addition, in experiment [2], the “kon” value turned out to be 0.051 nM⁻¹ h⁻¹, the “disc. t1/2 (dissociation half-life ln(2)/koff)” value is 7.2 h, the Ki came to 1.8 nM and the koff was 2.67e-05 s⁻¹.
Regarding `O=C(Nc1cccc(C(=O)N2CC3(CCCC3)c3c(F)cccc32)c1)NC1CC1` [Compound 2′, 1-cyclopropyl-3-(3-(4′-fluorospiro[cyclopentane-1,3′-indolin]-1′-carbonyl)phenyl)urea], the half-maximal inhibitory concentration (IC50) in experiment [1] (setting [7]) stood at 2600 nM; in experiment [5] it was 920 nM.
In the case of `CS(=O)(=O)Nc1ccc2c(c1)C1(CCCC1)CN2C(=O)c1cccc(S(=O)(=O)N2CCC(F)(F)CC2)c1` [Compound 18, N-(1′-(3-((4,4-difluoropiperidin-1-yl)sulfonyl)benzoyl)spiro[cyclopentane-1,3′-indolin]-5′-yl)methanesulfonamide], the IC50 in experiment [1] (HCC15, 168 h) was 160 nM; in experiment [5] it was 79 nM.
`CC1(NS(=O)(=O)c2cccc(C(=O)N3CC4(CCC5(CC5)CC4)c4cc(NS(C)(=O)=O)ccc43)c2)CCC1` [Compound 182, N-(1-methylcyclobutyl)-3-(5″- (methylsulfonamido)dispiro[cyclopropane-1,1′-cyclohexane-4′,3″-indoline]-1″-carbonyl)benzenesulfonamide]: the IC50 in experiment [1] (setting [7]) stood at 15 nM. Also, the half-inhibitory concentration (IC50) in experiment [5] was found to be 7.3 nM. Moreover, in experiment [2], the “kon” value stood at 0.11 nM⁻¹ h⁻¹, the “disc. t1/2 (dissociation half-life ln(2)/koff)” value was 24 h, the Ki was determined as 0.26 nM and the koff is 8.06e-06 s⁻¹.
Take `O=C(c1cccc(S(=O)(=O)N2CCC(F)(F)CC2)c1)N1CC2(CCC3(CC3)CC2)c2cc(NS(=O)(=O)CCO)ccc21` [Compound 29, N-(1″-(3-((4,4-difluoropiperidin-1-yl)sulfonyl)benzoyl)dispiro[cyclopropane-1,1′-cyclohexane-4′,3″-indolin]-5″-yl)-2-hydroxyethane-1-sulfonamide]: the half-maximal inhibitory concentration (IC50) in experiment [1] (setting [7]) is 330 nM; in experiment [5] it was 22 nM.
In the case of `CC(C)(C)NS(=O)(=O)c1cccc(C(=O)N2CC3(CCC4(CC4)CC3)c3cc(NS(=O)(=O)CCO)ccc32)c1` [Compound 148, N-(tert-butyl)-3-(5″-((2-hydroxyethyl)sulfonamido)dispiro [cyclopropane-1,1′-cyclohexane-4′,3″- indoline]-1″- carbonyl)benzenesulfonamide], in experiment [1] (setting [7]), the concentration for half-maximal inhibition (IC50) was 36 nM. This compound returned an IC50 in experiment [5] of 12 nM. Also, in experiment [2], the “kon” value amounted to 0.049 nM⁻¹ h⁻¹, the “disc. t1/2 (dissociation half-life ln(2)/koff)” value is recorded as 48 h, the Ki was determined as 0.29 nM and the koff was 3.89e-06 s⁻¹.
On to `CS(=O)(=O)Nc1ccc2c(c1)C1(CCC3(CC3)CC1)CN2C(=O)c1cccc(S(=O)(=O)NC2CCC2)c1` [Compound 168, N-cyclobutyl-3-(5″- (methylsulfonamido)dispiro[cyclopropane-1,1′-cyclohexane-4′,3″-indoline]-1″-carbonyl)benzenesulfonamide], for which the values for the concentration for half-maximal inhibition (IC50) in experiment [1] (setting [7]) and in experiment [5] were 28 nM and 5.5 nM, respectively.
Turning to `CS(=O)(=O)Nc1ccc2c(c1)C1(CCC3(CC3)CC1)CN2C(=O)c1cccc(S(=O)(=O)N2CC3(CCC3)C2)c1` [Compound 151, N-(1″-(3-((2-azaspiro[3.3]heptan-2-yl)sulfonyl)benzoyl)dispiro[cyclopropane-1,1′-cyclohexane-4′,3″-indolin]-5″- yl)methanesulfonamide], in experiment [1] (setting [7]), the half-maximal inhibitory concentration (IC50) is 13 nM. For the same compound, the concentration for half-maximal inhibition (IC50) in experiment [5] amounted to 6.8 nM. For the same compound, in experiment [2], the “kon” value was found to be 0.096 nM⁻¹ h⁻¹, the “disc. t1/2 (dissociation half-life ln(2)/koff)” value is 61 h, the Ki is 0.12 nM and the koff is 3.06e-06 s⁻¹.
`CS(=O)(=O)Nc1ccc2c(c1)C1(CCC3(CC3)CC1)CN2C(=O)c1cccc(S(=O)(=O)N2CCCCC2)c1` [Compound 20, N-(1″-(3-(piperidin-1-ylsulfonyl)benzoyl)dispiro[cyclopropane-1,1′-cyclohexane-4′,3″-indolin]-5″- yl)methanesulfonamide]: the IC50 in experiment [1] (setting [7]) was 25 nM; in experiment [5], 13 nM.
As for `CS(=O)(=O)Nc1ccc2c(c1)C1(CCC3(CC3)CC1)CN2C(=O)c1ccc([C@@H](O)C2CCCC2)o1` (single isomer, unassigned) [Compound 352b], the concentration for half-maximal inhibition (IC50) was 19 nM in experiment [3], 19 nM in experiment [1] (setting [6]) and 27 nM in experiment [4].
Consider `CS(=O)(=O)Nc1ccc2c(c1)C1(CCCCC1)CN2C(=O)c1cccc([S+]([O-])C2CCCC2)c1` (stereo not drawn) [Compound 43, N-(1′-(3-(cyclopentylsulfinyl)benzoyl)spiro [cyclohexane-1,3′-indolin]-5′-yl)methanesulfonamide], for which the 50% inhibitory concentration (IC50) in experiment [1] (setting [7]) came out at 490 nM; in experiment [5], 89 nM.
